Results taken from US9113629B2, “4-amino-6-(4-substituted-phenyl)-picolinates and 6-amino-2-(4-substituted-phenyl)-pyrimidine-4-carboxylates and their use as herbicides” (DOW AGROSCIENCES LLC, priority 2013, dated 2015).

Legend:
Assay type in all cases: in vivo
[1] = system: ALOMY: black-grass (Alopecurus myosuroides); assay: Post-emergent Test III, herbicidal activity in wheat and barley; details: for pest or weed control at 35 g/ha / pest or weed control at 70 g/ha / pest or weed control at 140 g/ha: Alopecurus myosuroides, post-emergence, 504 h, read-out: Visual Growth Reduction (%) 21 Days After Application ALOMY; for pest or weed control at 35 g/ha: 35 g ai/ha; for pest or weed control at 70 g/ha: 70 g ai/ha; for pest or weed control at 140 g/ha: 140 g ai/ha; for GR50 ALOMY / GR80 ALOMY: probit analysis, 21 days after application; for GR50 ALOMY: dose for growth reduction of 50 percent; for GR80 ALOMY: dose for growth reduction of 80 percent
How it was run: (§1)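 Plants at the second to third true-leaf stage, grown in a greenhouse at about 18/17 °C with a 14 h photoperiod, were sprayed post-emergence at 187 L/ha with the high rate and ½× to 1/16× serial dilutions in an acetone/DMSO/crop-oil/surfactant carrier. Injury was rated visually at 21 d on a 0–100% scale, and GR20–GR90 were derived by probit analysis.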

[2] = system: PAPRH: common poppy (Papaver rhoeas); assay: as above; details: for pest or weed control at 35 g/ha / pest or weed control at 70 g/ha / pest or weed control at 140 g/ha: Papaver rhoeas, post-emergence, 504 h, read-out: Visual Growth Reduction (%) 21 Days After Application PAPRH; for pest or weed control at 35 g/ha: 35 g ai/ha; for pest or weed control at 70 g/ha: 70 g ai/ha; for pest or weed control at 140 g/ha: 140 g ai/ha; for GR50 PAPRH / GR80 PAPRH: probit analysis, 21 days after application; for GR50 PAPRH: dose for growth reduction of 50 percent; for GR80 PAPRH: dose for growth reduction of 80 percent
How it was run: as §1

[3] = system: VERPE: bird's-eye speedwell (veronica persica); assay: as above; details: for pest or weed control at 35 g/ha / pest or weed control at 70 g/ha / pest or weed control at 140 g/ha: Veronica persica, post-emergence, 504 h, read-out: Visual Growth Reduction (%) 21 Days After Application VERPE; for pest or weed control at 35 g/ha: 35 g ai/ha; for pest or weed control at 70 g/ha: 70 g ai/ha; for pest or weed control at 140 g/ha: 140 g ai/ha; for GR50 VERPE / GR80 VERPE: probit analysis, 21 days after application; for GR50 VERPE: dose for growth reduction of 50 percent; for GR80 VERPE: dose for growth reduction of 80 percent
How it was run: as §1

[4] = system: BROTE: downy brome (Bromus tectorum); assay: as above; details: for pest or weed control at 35 g/ha / pest or weed control at 70 g/ha / pest or weed control at 140 g/ha: Bromus tectorum, post-emergence, 504 h, read-out: Visual Growth Reduction (%) 21 Days After Application BROTE; for pest or weed control at 35 g/ha: 35 g ai/ha; for pest or weed control at 70 g/ha: 70 g ai/ha; for pest or weed control at 140 g/ha: 140 g ai/ha; for GR50 BROTE / GR80 BROTE: probit analysis, 21 days after application; for GR50 BROTE: dose for growth reduction of 50 percent; for GR80 BROTE: dose for growth reduction of 80 percent
How it was run: as §1

LAMSS = assay: as above; details: for pest or weed control at 35 g/ha / pest or weed control at 70 g/ha / pest or weed control at 140 g/ha: post-emergence, 504 h, read-out: Visual Growth Reduction (%) 21 Days After Application LAMSS; for pest or weed control at 35 g/ha: 35 g ai/ha; for pest or weed control at 70 g/ha: 70 g ai/ha; for pest or weed control at 140 g/ha: 140 g ai/ha; for GR50 LAMSS / GR80 LAMSS: probit analysis, 21 days after application; for GR50 LAMSS: dose for growth reduction of 50 percent; for GR80 LAMSS: dose for growth reduction of 80 percent
How it was run: as §1

[5] = system: IPOHE: ivyleaf morningglory (Ipomoea hederecea); assay: Pre-emergent Test I herbicidal activity; details: pre-emergence, 336 h, read-out: Visual Growth Reduction (%) 14 Days After Application, IPOHE; for pest or weed control at 4000 g/ha: 4 kg ai/ha
How it was run: (§2)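 Read-out: visual herbicidal effect 0-100 relative to controls, 14 days after treatment, 100 meaning plant death or no emergence. Spray solution contained crop oil concentrate and 0.02% w/v Triton X-155; lower rates by serial dilution. Applied to soil after seeding, followed by water incorporation.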

[6] = system: SETFA: giant foxtail (Setaria faberi); assay: Pre-emergent Test I herbicidal activity; details: pre-emergence, 336 h, read-out: Visual Growth Reduction (%) 14 Days After Application, SETFA; for pest or weed control at 4000 g/ha: 4 kg ai/ha
How it was run: as §2

[7] = system: AMARE: redroot pigwseed (Amaranthus retroflexus); assay: Pre-emergent Test I herbicidal activity; details: pre-emergence, 336 h, read-out: Visual Growth Reduction (%) 14 Days After Application, AMARE; for pest or weed control at 4000 g/ha: 4 kg ai/ha
How it was run: as §2

SMILES	pest or weed control at 35 g/ha [1]	pest or weed control at 70 g/ha [1]	pest or weed control at 140 g/ha [1]	GR50 ALOMY [1]	GR80 ALOMY [1]	pest or weed control at 35 g/ha [2]	pest or weed control at 70 g/ha [2]	pest or weed control at 140 g/ha [2]	GR50 PAPRH [2]	GR80 PAPRH [2]	pest or weed control at 35 g/ha [3]	pest or weed control at 70 g/ha [3]	pest or weed control at 140 g/ha [3]	GR50 VERPE [3]	GR80 VERPE [3]	pest or weed control at 35 g/ha [4]	pest or weed control at 70 g/ha [4]	pest or weed control at 140 g/ha [4]	GR50 BROTE [4]	GR80 BROTE [4]	other results
Nc1c(F)c(-c2ccc(I)cc2)nc(C(=O)O)c1Cl [Compound 45, 4-amino-3-chloro-5-fluoro-6-(4-iodophenyl)picolinic acid]	75 to 84%	85 to 94%	95 to 100%	9 g ai/ha	27 g ai/ha	95 to 100%	95 to 100%	95 to 100%	1 g ai/ha	1 g ai/ha	75 to 84%	85 to 94%	85 to 94%	7 g ai/ha	30 g ai/ha	85 to 94%	85 to 94%	95 to 100%	13 g ai/ha	36 g ai/ha	pest or weed control at 35 g/ha (LAMSS): 85 to 94%; pest or weed control at 70 g/ha (LAMSS): 95 to 100%; pest or weed control at 140 g/ha (LAMSS): 95 to 100%; GR50 LAMSS (LAMSS): 1 g ai/ha; GR80 LAMSS (LAMSS): 6 g ai/ha; pest or weed control at 3960 g/ha ([5]; 3.96 kg ai/ha): 95 to 100%; pest or weed control at 3960 g/ha ([6]; 3.96 kg ai/ha): 95 to 100%; pest or weed control at 3960 g/ha ([7]; 3.96 kg ai/ha): 95 to 100%
COC(=O)c1nc(-c2ccc(Br)c(F)c2F)cc(N)c1Cl [Compound 114, methyl 4-amino-6-(4-bromo-2,3-difluorophenyl)-3-chloropicolinate]	0 to 29%	0 to 29%	0 to 29%	>140 g ai/ha	>140 g ai/ha	95 to 100%	95 to 100%	95 to 100%	1 g ai/ha	4 g ai/ha	30 to 44%	30 to 44%	30 to 44%	>140 g ai/ha	>140 g ai/ha	0 to 29%	0 to 29%	0 to 29%	>140 g ai/ha	>140 g ai/ha	pest or weed control at 35 g/ha (LAMSS): 85 to 94%; pest or weed control at 70 g/ha (LAMSS): 85 to 94%; pest or weed control at 140 g/ha (LAMSS): 95 to 100%; GR50 LAMSS (LAMSS): 1 g ai/ha; GR80 LAMSS (LAMSS): 4 g ai/ha; pest or weed control at 3920 g/ha ([5]; 3.92 kg ai/ha): 95 to 100%; pest or weed control at 3920 g/ha ([6]; 3.92 kg ai/ha): 85 to 94%; pest or weed control at 3920 g/ha ([7]; 3.92 kg ai/ha): 95 to 100%
COC(=O)c1nc(-c2ccc(Br)cc2)c(F)c(N)c1Cl [Compound 138, Methyl 4-amino-6-(4-bromophenyl)-3-chloro-5-fluoropicolinate]	75 to 84%	85 to 94%	95 to 100%	11 g ai/ha	30 g ai/ha	95 to 100%	95 to 100%	95 to 100%	1 g ai/ha	1 g ai/ha	60 to 74%	85 to 94%	85 to 94%	15 g ai/ha	49 g ai/ha	75 to 84%	85 to 94%	85 to 94%	12 g ai/ha	42 g ai/ha	pest or weed control at 35 g/ha (LAMSS): 95 to 100%; pest or weed control at 70 g/ha (LAMSS): 95 to 100%; pest or weed control at 140 g/ha (LAMSS): 95 to 100%; GR50 LAMSS (LAMSS): 1 g ai/ha; GR80 LAMSS (LAMSS): 1 g ai/ha; pest or weed control at 4000 g/ha [5]: 95 to 100%; pest or weed control at 4000 g/ha [6]: 95 to 100%; pest or weed control at 4000 g/ha [7]: 95 to 100%
Nc1c(F)c(-c2ccc(OC(F)F)cc2)nc(C(=O)O)c1Cl [Compound 143]	0 to 29%	60 to 74%	60 to 74%	71 g ai/ha	>140 g ai/ha	85 to 94%	85 to 94%	85 to 94%	1 g ai/ha	8 g ai/ha	30 to 44%	45 to 59%	45 to 59%	97 g ai/ha	>140 g ai/ha	0 to 29%	45 to 59%	45 to 59%	95 g ai/ha	>140 g ai/ha	pest or weed control at 35 g/ha (LAMSS): 85 to 94%; pest or weed control at 70 g/ha (LAMSS): 85 to 94%; pest or weed control at 140 g/ha (LAMSS): 85 to 94%; GR50 LAMSS (LAMSS): 1 g ai/ha; GR80 LAMSS (LAMSS): 1 g ai/ha; pest or weed control at 4000 g/ha [5]: 85 to 94%; pest or weed control at 4000 g/ha [6]: 95 to 100%; pest or weed control at 4000 g/ha [7]: 85 to 94%
